Test systems include ACHN; SW-620; KM12; SNB-75; NCI-H23; RXF 393; SR; M14; SNB-78; MDA-MB-435; NCI-H522; SK-OV-3; HCC 2998; OVCAR-8; NCI/ADR-RES; MCF7; SK-MEL-2; 786-0; PC-3; BT-549.
Test in all cases: inhibition of tumour cell growth, NCI panel, 48 h

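96-well plates; 48 h exposure; 5 concentrations. Endpoints by linear interpolation between flanking doses. Not reached: highest tested concentration assigned. GI50 is the concentration that inhibits growth by half.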 Active and inactive are the calls of the source. Cut-off read from the data, not from the text of the source: active = GI50 up to about 1.1 µM and inactive = higher.

Consider `CC(=O)OCc1cc2c(s1)C(=O)c1sccc1C2=O`, for which the GI50 was 0.0881 µM (active) in the experiment on ACHN; 0.104 µM (active) in the experiment on SW-620; 0.234 µM (active) with KM12; 0.057 µM (active) with SNB-75; 0.018 µM (active) in the experiment on NCI-H23; 0.157 µM (active) in the experiment on RXF 393. Further, the GI50 with SR was 1.89 µM (inactive); in the experiment with M14, < 0.0139 µM (active); in the experiment on SNB-78, 13.2 µM (inactive); in the experiment with MDA-MB-435, 0.0178 µM (active); in the experiment with NCI-H522, 0.147 µM (active); with SK-OV-3 it was 1.72 µM (inactive). For the same compound, the GI50 in the experiment with HCC 2998 was 1.78 µM (inactive); in the experiment on OVCAR-8, 0.183 µM (active); in the experiment with NCI/ADR-RES it was 0.2 µM (active); in the experiment with MCF7, 0.208 µM (active); in the experiment on SK-MEL-2, 0.0935 µM (active); in the experiment on 786-0, 0.619 µM (active). In addition, the GI50 in the experiment on PC-3 was 0.194 µM (active).
`COC(=O)c1ccccc1NCc1cc(O)ccc1O`: the GI50 was 16.2 µM (inactive) in the experiment with ACHN; 24.2 µM (inactive) with SW-620; 17.5 µM (inactive) with KM12; 28.8 µM (inactive) with SNB-75; 32.9 µM (inactive) with NCI-H23; 15.9 µM (inactive) in the experiment on RXF 393. Besides, the GI50 is > 10 µM (inactive) with SR; 12.5 µM (inactive) in the experiment on M14; 20.3 µM (inactive) in the experiment on SNB-78; 17.8 µM (inactive) in the experiment on MDA-MB-435; 2.63 µM (inactive) in the experiment with NCI-H522; > 100 µM (inactive) in the experiment on SK-OV-3. The GI50 is 2.71 µM (inactive) with BT-549; 23.4 µM (inactive) with HCC 2998; 18.1 µM (inactive) in the experiment with OVCAR-8; 19.2 µM (inactive) in the experiment with NCI/ADR-RES; 17.6 µM (inactive) in the experiment with MCF7; 22.3 µM (inactive) with SK-MEL-2. Moreover, the GI50 in the experiment with 786-0 is 17.7 µM (inactive); in the experiment on PC-3 it was 17 µM (inactive).
Regarding `CC(C)Cn1cnc2c(Sc3c([N+](=O)[O-])ncn3C)nc(N)nc21`, the GI50 is > 63.8 µM (inactive) in the experiment on ACHN; > 61.5 µM (inactive) with SW-620; > 100 µM (inactive) with KM12; > 59.8 µM (inactive) in the experiment with SNB-75; > 65.5 µM (inactive) with NCI-H23; > 56.1 µM (inactive) in the experiment with RXF 393. Also, the GI50 is 38.7 µM (inactive) with SR; > 52.2 µM (inactive) in the experiment on M14; > 100 µM (inactive) in the experiment on SNB-78; 37.5 µM (inactive) with MDA-MB-435; 26.3 µM (inactive) in the experiment with NCI-H522; > 100 µM (inactive) in the experiment on SK-OV-3. Besides, the GI50 in the experiment on BT-549 is 42.5 µM (inactive); with HCC 2998 it was > 62.7 µM (inactive); in the experiment with OVCAR-8, > 61.4 µM (inactive); in the experiment with NCI/ADR-RES it was > 100 µM (inactive); with MCF7, 27.6 µM (inactive); with SK-MEL-2, 22 µM (inactive). Also, the figures for the GI50 in the experiment with 786-0 and in the experiment with PC-3 were > 61 µM (inactive) and 26.1 µM (inactive), respectively.
As to `Cc1cc(CS(=O)(=O)/C=C/c2ccccc2[N+](=O)[O-])c(CS(=O)(=O)/C=C/c2ccccc2[N+](=O)[O-])cc1C`, the GI50 is 34.4 µM (inactive) with ACHN; > 54.2 µM (inactive) in the experiment with SW-620; 81.8 µM (inactive) in the experiment on KM12; 5.27 µM (inactive) in the experiment on SNB-75; 17.7 µM (inactive) in the experiment with NCI-H23; 10.3 µM (inactive) with RXF 393. The GI50 with SR was 13.7 µM (inactive); with M14, > 69.8 µM (inactive); in the experiment with SNB-78, 23 µM (inactive); with MDA-MB-435, > 41.9 µM (inactive); in the experiment with NCI-H522 it was 23.7 µM (inactive); with SK-OV-3, 24 µM (inactive). Further, the GI50 in the experiment on BT-549 is 7.41 µM (inactive); in the experiment on HCC 2998 it was > 85.3 µM (inactive); in the experiment with OVCAR-8, 24.1 µM (inactive); in the experiment on NCI/ADR-RES, 53.5 µM (inactive); in the experiment with MCF7, 8.13 µM (inactive); in the experiment on SK-MEL-2, 15.4 µM (inactive). Besides, the figures for the GI50 with 786-0 and with PC-3 were 12.5 µM (inactive) and 42.4 µM (inactive), respectively.
Regarding `CCc1cc(CCC(=O)Nc2c(C)cccc2C)n[nH]1`, the GI50 with ACHN, in the experiment with SW-620, in the experiment with KM12, with SNB-75, in the experiment on NCI-H23 and in the experiment with RXF 393 was > 100 µM (inactive) in each case. The GI50 in the experiment with SR, with M14, in the experiment on SNB-78, in the experiment on NCI-H522, with SK-OV-3 and in the experiment with HCC 2998 was > 100 µM (inactive) each time. Also, the GI50 in the experiment on OVCAR-8, in the experiment with SK-MEL-2 and with 786-0 was > 100 µM (inactive) each time.
As to `Cc1cccc(C)c1NC(=O)CCCC(=O)C(C#N)c1ccccc1` (centres undefined), the GI50 with ACHN was > 100 µM (inactive); with SW-620, > 100 µM (inactive); with KM12, > 10 µM (inactive); in the experiment with SNB-75, > 100 µM (inactive); in the experiment with NCI-H23 it was > 100 µM (inactive); in the experiment on RXF 393 it was > 100 µM (inactive). In addition, the GI50 in the experiment with SR is > 100 µM (inactive); in the experiment on M14, > 100 µM (inactive); in the experiment with SNB-78, > 100 µM (inactive); with NCI-H522, > 100 µM (inactive); with SK-OV-3 it was 91 µM (inactive); in the experiment with HCC 2998 it was > 10 µM (inactive). Moreover, the figures for the GI50 in the experiment with OVCAR-8, with SK-MEL-2 and in the experiment on 786-0 were > 10 µM (inactive), > 100 µM (inactive) and > 10 µM (inactive), respectively.
